Data reported in article PMC6154583, “Optimized 4,5-Diarylimidazoles as Potent/Selective Inhibitors of Protein Kinase CK1δ and Their Structural Relation to p38α MAPK” (Molecules : A Journal of Synthetic Chemistry and Natural …, 2017).

How the values were obtained:
ACV-R2A = molecular target: T1, ACV-R2A (Homo sapiens, UniProt P27037); assay: ProQinase 33PanQinase selectivity profiling; format: biochemical; conditions: 100 nM, relative to control, read-out: Residual activity (%)
T1 construct: purchased ProQinase GmbH (Freiburg, Germany)

ACV-R2B = molecular target: T2, ACV-R2B (Homo sapiens, UniProt Q13705); assay: ProQinase 33PanQinase selectivity profiling; format: biochemical; conditions: 100 nM, relative to control, read-out: Residual activity (%)
T2 construct: purchased ProQinase GmbH (Freiburg, Germany)

BMPR1A = molecular target: T3, BMPR1A (Homo sapiens, UniProt P36894); assay: ProQinase 33PanQinase selectivity profiling; format: biochemical; conditions: 100 nM, relative to control, read-out: Residual activity (%)
T3 construct: purchased ProQinase GmbH

CAMK1D = CAMK1D (Homo sapiens, UniProt Q8IU85); assay: ProQinase 33PanQinase selectivity profiling; format: biochemical; conditions: 100 nM, relative to control, read-out: Residual activity (%)
CLK4 = CLK4 (Homo sapiens, UniProt Q9HAZ1); assay: ProQinase 33PanQinase selectivity profiling; format: biochemical; conditions: 100 nM, relative to control, read-out: Residual activity (%)
RIPK2 = RIPK2 (Homo sapiens, UniProt O43353); assay: ProQinase 33PanQinase selectivity profiling; format: biochemical; conditions: 100 nM, relative to control, read-out: residual activity
DDR2 = DDR2 (Homo sapiens, UniProt Q16832); assay: ProQinase 33PanQinase selectivity profiling; format: biochemical; conditions: 100 nM, relative to control, read-out: Residual activity (%)
CK1-delta = CK1-delta (Homo sapiens, UniProt P48730); assay: ProQinase 33PanQinase selectivity profiling; format: biochemical; conditions: 100 nM, relative to control, read-out: Residual activity (%)
CDK6/CycD1 = CDK6/CycD1 (Homo sapiens, UniProt Q00534); assay: ProQinase 33PanQinase selectivity profiling; format: biochemical; conditions: 100 nM, relative to control, read-out: Residual activity (%)
DYRK1B = DYRK1B (Homo sapiens, UniProt Q9Y463); assay: ProQinase 33PanQinase selectivity profiling; format: biochemical; conditions: 100 nM, relative to control, read-out: Residual activity (%)
BLK = BLK (Homo sapiens, UniProt P51451); assay: ProQinase 33PanQinase selectivity profiling; format: biochemical; conditions: 100 nM, relative to control, read-out: Residual activity (%)
DYRK2 = DYRK2 (Homo sapiens, UniProt Q92630); assay: ProQinase 33PanQinase selectivity profiling; format: biochemical; conditions: 100 nM, relative to control, read-out: Residual activity (%)
B-RAF = B-RAF (Homo sapiens, UniProt P15056); assay: ProQinase 33PanQinase selectivity profiling; format: biochemical; conditions: 100 nM, relative to control, read-out: Residual activity (%)
Panc89 cells = assay: MTT viability assay; format: cell-based, human; conditions: Homo sapiens, 48 h incubation, mean ± SD, n = 3
Procedure: (§1) The human pancreatic cancer cell lines Colo357 [61], Panc-1 [62], and MiaPaCa-2 [63] were grown in Dulbecco’s modified Eagle’s medium (DMEM). Panc89 [64] was grown in DMEM:RPMI-1640 medium in ratio 1:1. The human colon adenocarcinoma cell line HT-29 [65] was grown in McCoy’s 5A medium. All media were supplemented with 10% fetal calf serum (FCS), 100 units·mL^−1 penicillin, 100 µg∙mL^−1 streptomycin and 2 mM glutamine. All cells were grown at 37 °C in a humidified 5% carbon dioxide atmosphere.
(§2) In order to determine the cytotoxic effects of investigated inhibitors conventional MTT assay were used. 1 × 10^4 cells∙well^−1 were seeded in 96-well cell culture plates and cultivated for 24 h. Cell lines were exposed to increasing concentrations of the indicated inhibitor compounds, with untreated and DMSO-treated cells serving as control. After an incubation period of 48 h 10 µL of MTT solution (5 mg∙mL^−1 in PBS) were added and cells were incubated for 4 h. MTT-containing medium was carefully removed and 100 µL acidic isopropanol (0.04 N HCl in isopropanol) per well were added. For dissolution of formazan crystals plates were shaken for 30 min on an orbital shaker in the dark. Finally, dissolved crystals were measured spectrophotometrically at […]. All experiments were performed in triplicate with four technical replicates per assay. Results were normalized considering the mean optical density value of control wells as 100%. GraphPad Prism 6 (La Jolla, CA, USA) software was used to calculate EC50 values.

Colo357 cells = assay: MTT viability assay; format: cell-based, human; conditions: Homo sapiens, COLO357, 48 h incubation, mean ± SD, n = 3
Procedure: as §1, §2

CDK9/CycK = CDK9/CycK (Homo sapiens, UniProt P50750); assay: ProQinase 33PanQinase selectivity profiling; format: biochemical; conditions: 100 nM, relative to control, read-out: Residual activity (%)
BMX = molecular target: T4, BMX (Homo sapiens, UniProt P51813); assay: ProQinase 33PanQinase selectivity profiling; format: biochemical; conditions: 100 nM, relative to control, read-out: Residual activity (%)
T4 construct: purchased ProQinase GmbH

ACK1 = molecular target: T5, ACK1 (Homo sapiens, UniProt Q07912); assay: ProQinase 33PanQinase selectivity profiling; format: biochemical; conditions: 100 nM, relative to control, read-out: Residual activity (%)
T5 construct: purchased ProQinase GmbH (Freiburg, Germany)

CDK9/CycT1 = CDK9/CycT1 (Homo sapiens, UniProt P50750); assay: ProQinase 33PanQinase selectivity profiling; format: biochemical; conditions: 100 nM, relative to control, read-out: Residual activity (%)
CDK19/CycC = CDK19/CycC (Homo sapiens, UniProt Q9BWU1); assay: ProQinase 33PanQinase selectivity profiling; format: biochemical; conditions: 100 nM, relative to control, read-out: Residual activity (%)
AKT3 aa106-479 = molecular target: T6, AKT3 aa106-479 (Homo sapiens, UniProt Q9Y243); assay: ProQinase 33PanQinase selectivity profiling; format: biochemical; conditions: 100 nM, relative to control, read-out: Residual activity (%)
T6 construct: AKT3 aa106-479; purchased ProQinase GmbH (Freiburg, Germany)

CAMK2G = CAMK2G (Homo sapiens, UniProt Q13555); assay: ProQinase 33PanQinase selectivity profiling; format: biochemical; conditions: 100 nM, relative to control, read-out: Residual activity (%)
ARK5 = ARK5 (Homo sapiens, UniProt O60285); assay: ProQinase 33PanQinase selectivity profiling; format: biochemical; conditions: 100 nM, relative to control, read-out: Residual activity (%)
CDK5/p35NCK = CDK5/p35NCK (Homo sapiens, UniProt Q00535); assay: ProQinase 33PanQinase selectivity profiling; format: biochemical; conditions: 100 nM, relative to control, read-out: Residual activity (%)
JNK2 = JNK2 (Homo sapiens, UniProt P45984); assay: ProQinase 33PanQinase selectivity profiling; format: biochemical; conditions: 100 nM, relative to control, read-out: residual activity
CDK8/CycC = CDK8/CycC (Homo sapiens, UniProt P49336); assay: ProQinase 33PanQinase selectivity profiling; format: biochemical; conditions: 100 nM, relative to control, read-out: Residual activity (%)
DMPK = DMPK (Homo sapiens, UniProt Q09013); assay: ProQinase 33PanQinase selectivity profiling; format: biochemical; conditions: 100 nM, relative to control, read-out: Residual activity (%)
DAPK2 = DAPK2 (Homo sapiens, UniProt Q9UIK4); assay: ProQinase 33PanQinase selectivity profiling; format: biochemical; conditions: 100 nM, relative to control, read-out: Residual activity (%)
BRSK1 = BRSK1 (Homo sapiens, UniProt Q8TDC3); assay: ProQinase 33PanQinase selectivity profiling; format: biochemical; conditions: 100 nM, relative to control, read-out: Residual activity (%)
CSK = CSK (Homo sapiens, UniProt P41240); assay: ProQinase 33PanQinase selectivity profiling; format: biochemical; conditions: 100 nM, relative to control, read-out: Residual activity (%)
CK2-alpha1 = CK2-alpha1 (Homo sapiens, UniProt P68400); assay: ProQinase 33PanQinase selectivity profiling; format: biochemical; conditions: 100 nM, relative to control, read-out: Residual activity (%)
CLK2 = CLK2 (Homo sapiens, UniProt P49760); assay: ProQinase 33PanQinase selectivity profiling; format: biochemical; conditions: 100 nM, relative to control, read-out: Residual activity (%)
CDC42BPA = molecular target: T7, CDC42BPA (Homo sapiens, UniProt Q5VT25); assay: ProQinase 33PanQinase selectivity profiling; format: biochemical; conditions: 100 nM, relative to control, read-out: Residual activity (%)
T7 construct: purchased ProQinase GmbH

CDK2/CycA2 = CDK2/CycA2 (Homo sapiens, UniProt P24941); assay: ProQinase 33PanQinase selectivity profiling; format: biochemical; conditions: 100 nM, relative to control, read-out: Residual activity (%)

Chain of DYRK1B (Q9Y463 whole entry): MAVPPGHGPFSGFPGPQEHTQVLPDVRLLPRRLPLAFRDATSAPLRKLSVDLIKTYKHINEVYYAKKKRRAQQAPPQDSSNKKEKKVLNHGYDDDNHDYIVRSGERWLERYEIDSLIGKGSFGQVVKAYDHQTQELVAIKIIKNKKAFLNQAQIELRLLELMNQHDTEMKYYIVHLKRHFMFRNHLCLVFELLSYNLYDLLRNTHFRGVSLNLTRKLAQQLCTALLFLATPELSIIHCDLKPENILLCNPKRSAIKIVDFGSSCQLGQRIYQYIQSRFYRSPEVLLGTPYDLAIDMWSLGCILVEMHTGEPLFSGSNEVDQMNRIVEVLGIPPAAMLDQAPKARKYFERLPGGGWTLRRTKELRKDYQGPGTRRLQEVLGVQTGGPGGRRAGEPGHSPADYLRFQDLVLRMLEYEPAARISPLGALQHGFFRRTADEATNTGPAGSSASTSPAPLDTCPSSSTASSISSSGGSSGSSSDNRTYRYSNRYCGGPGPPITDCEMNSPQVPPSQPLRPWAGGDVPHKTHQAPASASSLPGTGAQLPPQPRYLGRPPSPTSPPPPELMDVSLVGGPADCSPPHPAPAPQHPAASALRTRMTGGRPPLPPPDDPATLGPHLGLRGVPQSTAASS
Chain of CAMK2G (Q13555 whole entry): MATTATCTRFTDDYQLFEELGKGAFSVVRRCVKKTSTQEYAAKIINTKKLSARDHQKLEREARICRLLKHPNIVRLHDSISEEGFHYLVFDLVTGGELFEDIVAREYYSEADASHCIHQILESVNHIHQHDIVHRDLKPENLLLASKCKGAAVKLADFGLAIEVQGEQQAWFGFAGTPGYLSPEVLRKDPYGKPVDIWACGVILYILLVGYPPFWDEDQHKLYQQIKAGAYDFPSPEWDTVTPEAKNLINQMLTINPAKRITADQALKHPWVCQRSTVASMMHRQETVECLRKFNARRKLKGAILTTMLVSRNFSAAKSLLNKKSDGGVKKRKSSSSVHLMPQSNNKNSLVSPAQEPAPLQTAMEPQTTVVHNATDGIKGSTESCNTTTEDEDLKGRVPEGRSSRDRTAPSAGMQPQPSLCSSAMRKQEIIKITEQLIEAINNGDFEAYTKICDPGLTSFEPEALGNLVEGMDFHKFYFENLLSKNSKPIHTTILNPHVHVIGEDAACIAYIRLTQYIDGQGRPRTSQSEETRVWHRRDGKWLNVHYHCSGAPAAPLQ
T7 sequence (Q5VT25 whole entry): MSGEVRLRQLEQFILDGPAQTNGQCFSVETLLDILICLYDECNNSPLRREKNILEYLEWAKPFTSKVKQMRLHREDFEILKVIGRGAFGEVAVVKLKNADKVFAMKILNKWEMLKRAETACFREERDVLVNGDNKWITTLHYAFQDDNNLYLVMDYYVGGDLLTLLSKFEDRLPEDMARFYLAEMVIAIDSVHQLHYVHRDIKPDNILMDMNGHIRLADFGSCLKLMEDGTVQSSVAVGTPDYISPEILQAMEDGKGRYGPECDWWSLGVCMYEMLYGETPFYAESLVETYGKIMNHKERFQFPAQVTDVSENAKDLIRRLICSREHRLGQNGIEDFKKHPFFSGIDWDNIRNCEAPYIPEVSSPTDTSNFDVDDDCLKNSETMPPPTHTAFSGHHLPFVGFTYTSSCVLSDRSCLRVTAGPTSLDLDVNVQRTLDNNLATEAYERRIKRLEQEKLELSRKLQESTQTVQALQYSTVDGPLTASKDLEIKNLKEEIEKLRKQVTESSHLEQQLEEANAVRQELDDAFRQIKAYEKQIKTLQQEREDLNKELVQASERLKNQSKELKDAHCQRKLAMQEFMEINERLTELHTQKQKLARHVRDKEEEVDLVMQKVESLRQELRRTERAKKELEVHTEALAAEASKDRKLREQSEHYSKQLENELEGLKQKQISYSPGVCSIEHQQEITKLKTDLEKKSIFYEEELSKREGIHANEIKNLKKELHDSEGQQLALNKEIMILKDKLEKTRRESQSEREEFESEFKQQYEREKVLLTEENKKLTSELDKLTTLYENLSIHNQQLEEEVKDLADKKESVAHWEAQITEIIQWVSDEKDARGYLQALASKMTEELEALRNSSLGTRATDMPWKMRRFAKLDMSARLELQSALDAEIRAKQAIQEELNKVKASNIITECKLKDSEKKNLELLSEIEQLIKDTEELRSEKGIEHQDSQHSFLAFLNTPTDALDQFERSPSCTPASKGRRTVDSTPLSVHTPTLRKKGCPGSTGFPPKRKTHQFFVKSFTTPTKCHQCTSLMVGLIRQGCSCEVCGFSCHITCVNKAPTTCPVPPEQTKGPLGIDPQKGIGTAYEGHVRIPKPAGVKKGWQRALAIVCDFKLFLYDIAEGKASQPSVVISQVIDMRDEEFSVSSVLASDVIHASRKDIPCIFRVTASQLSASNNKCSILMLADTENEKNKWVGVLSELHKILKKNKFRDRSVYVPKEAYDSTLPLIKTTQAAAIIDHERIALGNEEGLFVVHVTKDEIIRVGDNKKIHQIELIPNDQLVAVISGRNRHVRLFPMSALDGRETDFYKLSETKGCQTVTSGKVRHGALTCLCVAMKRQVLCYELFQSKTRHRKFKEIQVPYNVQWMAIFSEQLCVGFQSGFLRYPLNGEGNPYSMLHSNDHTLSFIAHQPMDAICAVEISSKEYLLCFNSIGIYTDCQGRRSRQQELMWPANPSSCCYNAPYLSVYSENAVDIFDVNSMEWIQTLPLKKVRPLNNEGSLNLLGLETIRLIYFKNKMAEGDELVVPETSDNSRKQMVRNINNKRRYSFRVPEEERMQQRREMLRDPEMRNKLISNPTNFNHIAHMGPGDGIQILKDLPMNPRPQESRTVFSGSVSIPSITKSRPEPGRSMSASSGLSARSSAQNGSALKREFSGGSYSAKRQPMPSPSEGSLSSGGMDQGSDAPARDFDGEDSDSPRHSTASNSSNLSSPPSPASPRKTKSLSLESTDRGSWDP
T4 sequence (P51813 whole entry): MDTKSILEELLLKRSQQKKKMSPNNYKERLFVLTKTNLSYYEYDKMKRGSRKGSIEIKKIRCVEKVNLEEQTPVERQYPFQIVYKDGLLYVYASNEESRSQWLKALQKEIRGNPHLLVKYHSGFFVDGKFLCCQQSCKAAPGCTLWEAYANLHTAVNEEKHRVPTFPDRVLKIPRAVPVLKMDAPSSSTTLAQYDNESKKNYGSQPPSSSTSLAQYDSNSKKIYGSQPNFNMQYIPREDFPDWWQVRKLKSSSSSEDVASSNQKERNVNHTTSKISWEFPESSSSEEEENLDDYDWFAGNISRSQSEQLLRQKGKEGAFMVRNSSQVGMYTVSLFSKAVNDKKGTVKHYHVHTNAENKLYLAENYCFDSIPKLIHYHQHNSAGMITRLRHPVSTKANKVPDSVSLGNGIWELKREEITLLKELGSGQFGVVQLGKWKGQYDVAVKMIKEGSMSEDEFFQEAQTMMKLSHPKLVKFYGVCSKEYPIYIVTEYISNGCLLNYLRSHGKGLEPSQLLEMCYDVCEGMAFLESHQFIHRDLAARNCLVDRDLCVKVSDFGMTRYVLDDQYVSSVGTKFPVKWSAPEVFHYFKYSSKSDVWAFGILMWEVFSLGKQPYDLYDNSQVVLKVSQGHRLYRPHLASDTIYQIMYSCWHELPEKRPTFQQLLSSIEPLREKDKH
Chain of JNK2 (P45984 whole entry): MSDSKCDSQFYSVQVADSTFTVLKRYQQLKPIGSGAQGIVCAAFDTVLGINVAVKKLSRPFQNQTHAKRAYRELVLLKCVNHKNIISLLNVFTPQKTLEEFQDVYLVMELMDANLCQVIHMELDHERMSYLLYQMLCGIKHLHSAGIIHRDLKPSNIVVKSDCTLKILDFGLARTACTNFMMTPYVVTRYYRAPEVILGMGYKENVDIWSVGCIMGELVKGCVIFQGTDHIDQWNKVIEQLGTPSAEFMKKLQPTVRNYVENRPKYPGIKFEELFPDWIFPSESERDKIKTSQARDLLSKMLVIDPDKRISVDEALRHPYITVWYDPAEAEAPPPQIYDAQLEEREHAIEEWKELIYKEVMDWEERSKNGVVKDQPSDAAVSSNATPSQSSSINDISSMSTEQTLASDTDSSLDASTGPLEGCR
Chain of ARK5 (O60285 whole entry): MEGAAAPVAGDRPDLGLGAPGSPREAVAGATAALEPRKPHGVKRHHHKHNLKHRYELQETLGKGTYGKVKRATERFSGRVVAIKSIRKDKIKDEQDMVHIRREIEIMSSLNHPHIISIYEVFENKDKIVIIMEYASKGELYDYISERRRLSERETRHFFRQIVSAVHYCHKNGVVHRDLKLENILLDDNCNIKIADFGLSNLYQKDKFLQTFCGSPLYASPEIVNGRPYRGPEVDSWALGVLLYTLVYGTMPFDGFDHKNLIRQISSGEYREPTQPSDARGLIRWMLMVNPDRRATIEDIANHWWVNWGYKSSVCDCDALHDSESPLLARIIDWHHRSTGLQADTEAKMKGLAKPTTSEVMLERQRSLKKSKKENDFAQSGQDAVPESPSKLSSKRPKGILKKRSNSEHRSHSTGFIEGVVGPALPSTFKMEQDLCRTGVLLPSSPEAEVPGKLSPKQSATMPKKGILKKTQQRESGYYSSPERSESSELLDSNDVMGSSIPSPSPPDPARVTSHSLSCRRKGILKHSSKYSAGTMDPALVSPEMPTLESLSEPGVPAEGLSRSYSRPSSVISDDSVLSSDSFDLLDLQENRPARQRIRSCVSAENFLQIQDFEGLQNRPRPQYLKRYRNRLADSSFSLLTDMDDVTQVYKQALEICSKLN
Chain of CK2-alpha1 (P68400 whole entry): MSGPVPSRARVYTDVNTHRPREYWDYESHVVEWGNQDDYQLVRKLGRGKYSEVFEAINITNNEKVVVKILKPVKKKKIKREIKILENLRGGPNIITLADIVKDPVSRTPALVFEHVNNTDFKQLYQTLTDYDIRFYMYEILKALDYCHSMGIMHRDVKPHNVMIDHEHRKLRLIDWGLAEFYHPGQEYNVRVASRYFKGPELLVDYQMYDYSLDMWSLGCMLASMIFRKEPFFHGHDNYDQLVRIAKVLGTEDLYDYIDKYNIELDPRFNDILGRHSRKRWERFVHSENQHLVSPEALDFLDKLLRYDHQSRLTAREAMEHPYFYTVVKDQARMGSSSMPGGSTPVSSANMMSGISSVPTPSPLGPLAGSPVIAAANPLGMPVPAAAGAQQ

COc1ccc(OC)c(CCC(=O)Nc2cc(-c3nc(SC)[nH]c3-c3ccc(F)cc3)ccn2)c1 [11b, 3-(2,5-Dimethoxyphenyl)-N-(4-(5-(4-fluorophenyl)-2-(methylthio)-1H-imidazol-4-yl)-pyridin-2-yl)-propanamide]
remaining activity at 0.1 µM (ACV-R2A): 98% | remaining activity at 0.1 µM (ACV-R2B): 97% | remaining activity at 0.1 µM (BMPR1A): 102% | remaining activity at 0.1 µM (CAMK1D): 78% | remaining activity at 0.1 µM (CLK4): 95% | remaining activity at 0.1 µM (RIPK2): 45% | remaining activity at 0.1 µM (DDR2): 101% | remaining activity at 0.1 µM (CK1-delta): 3% | remaining activity at 0.1 µM (CDK6/CycD1): 105% | remaining activity at 0.1 µM (DYRK1B): 101% | remaining activity at 0.1 µM (BLK): 77% | remaining activity at 0.1 µM (DYRK2): 99% | remaining activity at 0.1 µM (B-RAF): 91% | EC50 (Panc89 cells): 1.5 ± 0.4 µM | EC50 (Colo357 cells): 3.5 ± 0.3 µM | remaining activity at 0.1 µM (CDK9/CycK): 103% | remaining activity at 0.1 µM (BMX): 98% | remaining activity at 0.1 µM (ACK1): 96% | remaining activity at 0.1 µM (CDK9/CycT1): 93% | remaining activity at 0.1 µM (CDK19/CycC): 86% | remaining activity at 0.1 µM (AKT3 aa106-479): 83% | remaining activity at 0.1 µM (CAMK2G): 105% | remaining activity at 0.1 µM (ARK5): 88% | remaining activity at 0.1 µM (CDK5/p35NCK): 85% | remaining activity at 0.1 µM (JNK2): 21% | remaining activity at 0.1 µM (CDK8/CycC): 90% | remaining activity at 0.1 µM (DMPK): 103% | remaining activity at 0.1 µM (DAPK2): 95% | remaining activity at 0.1 µM (BRSK1): 89% | remaining activity at 0.1 µM (CSK): 101% | remaining activity at 0.1 µM (CK2-alpha1): 97% | remaining activity at 0.1 µM (CLK2): 101% | remaining activity at 0.1 µM (CDC42BPA): 104% | remaining activity at 0.1 µM (CDK2/CycA2): 87%
